Reference: ChEMBL document CHEMBL2016563, “Synthesis of new bergenin derivatives as potent inhibitors of inflammatory mediators NO and TNF-α” (Bioorg Med Chem Lett, 2012)

Assays:
[1] = Antiinflammatory activity in human neutrophils assessed as inhibition of opsonized zymosan A-mediated superoxide anions production by WST-1 based respiratory burst assay; type: functional, cell-based, Neutrophil
[2] = tested on: NIH3T3; assay: Cytotoxicity against mouse 3T3 cells at 100 uM after 72 hrs by MTT assay; type: cell-based; conditions: nih3t3, 72 h
[3] = tested on: J774.2; assay: Antiinflammatory activity in mouse J774.2 cells assessed as inhibition of LPS-induced NO production at 60 uM after 48 hrs by spectrophotometry; type: functional; conditions: J774.2, 48 h
[4] = tested on: THP-1; assay: Induction of LPS-B-induced TNF-alpha production in human THP1 cells at 60 uM after 4 hrs; type: functional
[5] = tested on: THP-1; assay: Antiinflammatory activity in human THP1 cells assessed as inhibition of LPS-B-induced TNF-alpha production at 60 uM after 4 hrs; type: functional; conditions: THP-1, 4 h
[6] = tested on: J774.2; assay: Induction of LPS-induced NO production in mouse J774.2 cells at 60 uM after 48 hrs by spectrophotometry; type: functional
[7] = Homo sapiens, Neutrophil, read-out: IC50

**Q.** Which IC50 [1, 7] does the source give for `C=CCOc1cc2c(c(OCC=C)c1OC)[C@@H]1O[C@H](CO)[C@@H](O)[C@H](O)[C@H]1OC2=O` here?
**A.** 333 µM

**Q.** And the Activity [2]?
**A.** Non-toxic

**Q.** What about the inhibition at 60 µM [3] of the same compound?
**A.** 5.5%

**Q.** And the Activity [4]?
**A.** 18.41%

**Q.** For `CCOC(=O)COc1cc2c(c(OCC(=O)OCC)c1OC)[C@@H]1O[C@H](CO)[C@@H](O)[C@H](O)[C@H]1OC2=O`, which IC50 [1, 7] is on record?
**A.** 253 µM

**Q.** What about the inhibition at 60 µM [5] of the same compound?
**A.** 96.2%

**Q.** What about the Activity [2] of the same compound?
**A.** Non-toxic

**Q.** What about the inhibition at 60 µM [3] of the same compound?
**A.** 86.8%

**Q.** For `CCOc1cc2c(c(OCC)c1OC)[C@@H]1O[C@H](CO)[C@@H](O)[C@H](O)[C@H]1OC2=O`, which IC50 [1, 7] is on record?
**A.** 322 µM

**Q.** What about the inhibition at 60 µM [5] of the same compound?
**A.** 98.6%

**Q.** And the Activity [2]?
**A.** Non-toxic

**Q.** What about the inhibition at 60 µM [3] of the same compound?
**A.** 54.5%

**Q.** For `CCCCOc1cc2c(c(OCCCC)c1OC)[C@@H]1O[C@H](CO)[C@@H](O)[C@H](O)[C@H]1OC2=O`, which IC50 [1, 7] is on record?
**A.** 403 µM

**Q.** And the inhibition at 60 µM [5]?
**A.** 26.3%

**Q.** And the Activity [2]?
**A.** Non-toxic

**Q.** And the inhibition at 60 µM [3]?
**A.** 31.2%

**Q.** For `COc1c(O)cc2c(c1O)[C@@H]1O[C@H](CO)[C@@H](O)[C@H](O)[C@H]1OC2=O` [BERGENIN], which IC50 [1, 7] is on record?
**A.** 303 µM

**Q.** And the Activity [2]?
**A.** Non-toxic

**Q.** And the inhibition at 60 µM [3]?
**A.** 4.3%

**Q.** And the Activity [4]?
**A.** 7.91%

**Q.** Which IC50 ([1]; neutrophil) does the source give for `COc1cc2c(c(OC)c1OC)[C@@H]1O[C@H](CO)[C@@H](O)[C@H](O)[C@H]1OC2=O` here?
**A.** Not Active

**Q.** What about the inhibition at 60 µM [5] of the same compound?
**A.** 0.44%

**Q.** What about the Activity [2] of the same compound?
**A.** Non-toxic

**Q.** What about the inhibition at 60 µM [3] of the same compound?
**A.** 47.6%

**Q.** For `COc1c(OCC#N)cc2c(c1OCC#N)[C@@H]1O[C@H](CO)[C@@H](O)[C@H](O)[C@H]1OC2=O`, which IC50 [1, 7] is on record?
**A.** 416 µM

**Q.** And the Activity [2]?
**A.** Non-toxic

**Q.** What about the inhibition at 60 µM [3] of the same compound?
**A.** 13.3%

**Q.** And the Activity [4]?
**A.** 26.21%

**Q.** Which results are given for `CCCCCCCOc1cc2c(c(OCCCCCCC)c1OC)[C@@H]1O[C@H](CO)[C@@H](O)[C@H](O)[C@H]1OC2=O`?
**A.** IC50 [1, 7]: 213 µM; inhibition at 60 µM [5]: 28.7%; Activity [2]: Non-toxic; inhibition at 60 µM [3]: 18%

**Q.** For `C=CCCOc1cc2c(c(OCCC=C)c1OC)[C@@H]1O[C@H](CO)[C@@H](O)[C@H](O)[C@H]1OC2=O`, which IC50 [1, 7] is on record?
**A.** 288 µM

**Q.** What about the Activity [2] of the same compound?
**A.** Non-toxic

**Q.** What about the inhibition at 60 µM [3] of the same compound?
**A.** 3.6%

**Q.** What about the Activity [4] of the same compound?
**A.** 13.27%

**Q.** Which IC50 [1, 7] does the source give for `C=CCCCCOc1cc2c(c(OCCCCC=C)c1OC)[C@@H]1O[C@H](CO)[C@@H](O)[C@H](O)[C@H]1OC2=O` here?
**A.** 270 µM

**Q.** And the inhibition at 60 µM [5]?
**A.** 17.7%

**Q.** What about the Activity [2] of the same compound?
**A.** Non-toxic

**Q.** What about the inhibition at 60 µM [3] of the same compound?
**A.** 9.4%

**Q.** Which inhibition at 60 µM [3] does the source give for `CNC(=N)NCCC[C@H](N)C(=O)O` [TILARGININE ACETATE] here?
**A.** 40%

**Q.** Which IC50 [1, 7] does the source give for `COc1ccc2c(c1)c(CC(=O)O)c(C)n2C(=O)c1ccc(Cl)cc1` [INDOMETHACIN] here?
**A.** 271 µM

**Q.** With `COc1c(OCC(=O)OC(C)(C)C)cc2c(c1OCC(=O)OC(C)(C)C)[C@@H]1O[C@H](CO)[C@@H](O)[C@H](O)[C@H]1OC2=O` as the compound, how does the IC50 [1, 7] read?
**A.** 482 µM

**Q.** And the inhibition at 60 µM [5]?
**A.** 9.6%

**Q.** What about the Activity [2] of the same compound?
**A.** Non-toxic

**Q.** What about the inhibition at 60 µM [3] of the same compound?
**A.** 16.3%

**Q.** With `CCCOc1cc2c(c(OCCC)c1OC)[C@@H]1O[C@H](CO)[C@@H](O)[C@H](O)[C@H]1OC2=O` as the compound, how does the IC50 ([1]; neutrophil) read?
**A.** Not Active

**Q.** What about the Activity [2] of the same compound?
**A.** Non-toxic

**Q.** And the inhibition at 60 µM [3]?
**A.** 8.9%

**Q.** And the Activity [4]?
**A.** 5.57%

**Q.** With `CCCCCCCCOc1cc2c(c(OCCCCCCCC)c1OC)[C@@H]1O[C@H](CO)[C@@H](O)[C@H](O)[C@H]1OC2=O` as the compound, how does the IC50 [1, 7] read?
**A.** 222 µM

**Q.** And the Activity [2]?
**A.** Non-toxic

**Q.** And the inhibition at 60 µM [3]?
**A.** 18%

**Q.** What about the Activity [4] of the same compound?
**A.** 3.4%

**Q.** Which results are given for `C#CCOc1cc2c(c(OCC#C)c1OC)[C@@H]1O[C@H](CO)[C@@H](O)[C@H](O)[C@H]1OC2=O`?
**A.** IC50 [1, 7]: 382 µM; Activity [2]: Non-toxic; inhibition at 60 µM [3]: 19.4%; Activity [4]: 27.56%

**Q.** With `CCCCCOc1cc2c(c(OCCCCC)c1OC)[C@@H]1O[C@H](CO)[C@@H](O)[C@H](O)[C@H]1OC2=O` as the compound, how does the IC50 [1, 7] read?
**A.** 296 µM

**Q.** And the inhibition at 60 µM [5]?
**A.** 20.9%

**Q.** And the Activity [2]?
**A.** Non-toxic

**Q.** What about the inhibition at 60 µM [3] of the same compound?
**A.** 3.4%

**Q.** Which IC50 [1, 7] does the source give for `COc1c(OC(C)C)cc2c(c1OC(C)C)[C@@H]1O[C@H](CO)[C@@H](O)[C@H](O)[C@H]1OC2=O` here?
**A.** 303 µM

**Q.** What about the Activity [2] of the same compound?
**A.** Non-toxic

**Q.** And the Activity [6]?
**A.** 5.5%

**Q.** What about the Activity [4] of the same compound?
**A.** 8.44%
